Measured values from publication PMC10674446, “Synthesis and Structural Characterization of Novel Dimers of Dipyridothiazine as Promising Antiproliferative Agents” (Molecules, 2023).
Like-named read-outs stand apart in the source and are kept apart here.

How the values were obtained:
normal L6 rat myoblasts = assay: MTT cell viability assay, normal L6 cells; assay type: cell-based; conditions: Rattus norvegicus, Myoblast, mean ± SD, n = 3, read-out: Anticancer Activity IC50, L6
Protocol: (§1) MCF7, SW480 and normal L6 muscle cells were bought from the ATCC company, USA [34]. MCF7 and SW480 adenocarcinoma cell lines were cultured, respectively, using Dulbecco’s Modified Eagle Medium (DMEM with 4.5 g/L glucose; HIMEDIA, Mumbai, India) supplemented with 100 U/mL penicillin, 100 µg/mL of streptomycin and 10% fetal bovine serum (FBS; Cat No. FBSEU500; Tico Europe, Amstelveen, The Netherlands) under standard conditions until the desired confluency was reached. Once the desired cell confluency of 70–80% was observed, the cells were sub-cultured through trypsinization, and the cell count was calculated prior to seeding in the 96-well microplate. Similarly, L6 rat myoblasts were cultured accordingly as normal cell lines to compare against MCF7 and SW480 cell lines during the MTT cell viability assay.
(§2) Cells were seeded in a 96-well microplate at a density of 1 × 10^4 cells per well and were allowed to adhere to the wells overnight. Subsequently, the cells were treated with varying concentrations of 12 compounds (1a,b,c–4a,b,c) along with doxorubicin as the positive control. The cells were exposed to the tested substances at concentrations ranging from 50, 25, 10, 5 and 1 μM. The treatment was conducted over three periods of 24 h, 48 h and 72 h, respectively. After the treatment period, thiazolyl blue tetrazolium bromide (MTT) solution was added to each well at a concentration of 0.5 mg/mL and incubated for 3 h in a 37 °C incubator supplemented with 5% CO2. Lastly, the spent MTT medium was removed and DMSO was added to the wells, where the purple formazan crystals were solubilized, and the intensity of the purple hue was spectrophotometrically measured at 570 nm.
(§3) All values were represented as means ± standard deviations (n = 3). The data were statistically analyzed using GraphPad Prism 10.1.0, where the IC50 values of each compound treated on different cell lines at different time points were obtained by extrapolating the logarithmic dose–response curve. The IC50 values were further subjected to one-way ANOVA analysis along with the post hoc test to determine the statistical significance between the treatment groups and the negative control (untreated cells).

MCF7 breast cancer = assay: MTT cell viability assay, MCF7; assay type: cell-based, human; conditions: for Selectivity Index (SI), MCF-7: SI = IC50 L6 / IC50 MCF-7; for IC50: Homo sapiens, MCF7, mean ± SD, n = 3, read-out: Anticancer Activity IC50, MCF-7
Protocol: as §1
(§4) Cells were seeded in a 96-well microplate at a density of 1 × 10^4 cells per well and were allowed to adhere to the wells overnight. […] The cells were exposed to the tested substances at concentrations ranging from 50, 25, 10, 5 and 1 μM. The treatment was conducted over three periods of 24 h, 48 h and 72 h, respectively. […] Lastly, the spent MTT medium was removed and DMSO was added to the wells, where the purple formazan crystals were solubilized, and the intensity of the purple hue was spectrophotometrically measured at 570 nm.
(§5) All values were represented as means ± standard deviations (n = 3). […] The IC50 values were further subjected to one-way ANOVA analysis along with the post hoc test to determine the statistical significance between the treatment groups and the negative control (untreated cells).

SW480 colon cancer = assay: MTT cell viability assay, SW480; assay type: cell-based, human; conditions: for Selectivity Index (SI), SW480: SI = IC50 L6 / IC50 SW480; for IC50: Homo sapiens, SW480, mean ± SD, n = 3, read-out: Anticancer Activity IC50, SW480
Protocol: as §1, §4, §5

[1] = system: MCF7 and SW480 cancer cells; assay: MTT cell viability assay, both cancer cell lines; assay type: cell-based, human; conditions: for toxicity towards both MCF7 and SW480 cancer cells (in words): 24, 48 and 72 h of incubation; for IC50: Homo sapiens, MCF7 and SW480, span over 24, 48 and 72 h, read-out: IC50 range towards both cancer cell lines
Protocol: as §1, §2, §3

[2] = 72 h treatment period, NA = IC50 beyond the tested concentration range (1-50 µM)

Compound | IC50 (normal L6 rat myoblasts; 24 h treatment period) | IC50 (normal L6 rat myoblasts; 48 h treatment period) | IC50 (normal L6 rat myoblasts; 72 h treatment period) | Selectivity Index (SI), MCF-7 (MCF7 breast cancer; 24 h) | Selectivity Index (SI), MCF-7 (MCF7 breast cancer; 48 h) | Selectivity Index (SI), MCF-7 (MCF7 breast cancer; 72 h) | IC50 (MCF7 breast cancer; 24 h treatment period) | IC50 (MCF7 breast cancer; 48 h treatment period) | IC50 (MCF7 breast cancer; [2]) | Selectivity Index (SI), SW480 (SW480 colon cancer; 24 h) | Selectivity Index (SI), SW480 (SW480 colon cancer; 48 h) | Selectivity Index (SI), SW480 (SW480 colon cancer; 72 h) | IC50 (SW480 colon cancer; 24 h treatment period) | IC50 (SW480 colon cancer; 48 h treatment period) | IC50 (SW480 colon cancer; 72 h treatment period) | melting point | toxicity towards both MCF7 and SW480 cancer cells (in words) [1] | IC50 [1]
c1cc(CN2c3cccnc3Sc3cccnc32)nc(CN2c3cccnc3Sc3cccnc32)c1 [1c, 2,6-bis((dipyrido[2,3-b:2′,3′-e][1,4]thiazin-10-yl)methyl)pyridine] | 11.3 ± 0.99 µM | 2.67 ± 2.13 µM | 6.82 ± 1.24 µM | 2.25 | 3.56 | 5.5 | 5 ± 1.29 µM | 0.75 ± 1.85 µM | 1.14 ± 0.51 µM | 16.5 | 0.67 | 1.5 | 0.67 µM | 3.97 ± 1.27 µM | 4.27 ± 0.19 µM | 245 to 247 °C | significantly toxic | 0.67 to 5 µM
c1ccc(CN2c3cnccc3Sc3cccnc32)c(CN2c3cnccc3Sc3cccnc32)c1 [2a, 1,2-bis((dipyrido[3,2-b:3′,4′-e][1,4]thiazin-10-yl)methyl)benzene] | 22.1 ± 1.42 µM | 17.7 ± 0.27 µM | 13 ± 1.32 µM | 3.5 | 1.83 | 1.59 | 6.27 ± 0.95 µM | 9.65 ± 0.63 µM | 8.16 ± 0.97 µM | 2.32 | 2.03 | 1.75 | 9.68 ± 0.17 µM | 8.74 ± 0.03 µM | 7.433 ± 0.02 µM | 260 to 261 °C | significantly toxic | 6.27 to 9.68 µM
c1cc(CN2c3ccncc3Sc3ccncc32)nc(CN2c3ccncc3Sc3ccncc32)c1 [3c, 2,6-bis((dipyrido[3,4-b:3′,4′-e][1,4]thiazin-10-yl)methyl)pyridine] | 48.98 ± 0.33 µM | 28.4 ± 0.37 µM | 35.53 ± 0.04 µM | 3.25 | 2.42 | 1.41 | 15 ± 0.73 µM | 11.7 ± 0.38 µM | 25.2 ± 1.74 µM | 2.19 | 0.94 | 1.37 | 22.3 ± 0.93 µM | 28.8 ± 1.55 µM | 25.9 ± 0.84 µM | 245 to 247 °C | – | –
c1ccc(CN2c3ccncc3Sc3ncccc32)c(CN2c3ccncc3Sc3ncccc32)c1 [4a, 1,2-bis((dipyrido[2,3-b:4′,3′-e][1,4]thiazin-5-yl)methyl)benzene] | 35.9 ± 0.57 µM | 22.9 ± 1.39 µM | 14.9 ± 1.15 µM | 1.10 | 0.68 | 0.75 | 32.7 ± 2.31 µM | 33.8 ± 1.46 µM | 19.9 ± 2.36 µM | 1.56 | 0.95 | 0.61 | 23 ± 1.22 µM | 24.1 ± 0.66 µM | 24.4 ± 0.83 µM | 302 to 303 °C | – | –
COc1cccc2c1C(=O)c1c(O)c3c(c(O)c1C2=O)C[C@@](O)(C(=O)CO)C[C@@H]3O[C@H]1C[C@H](N)[C@H](O)[C@H](C)O1 [Doxorubicin, reference compound] | 11.5 ± 0.68 µM | 6.62 ± 0.18 µM | 3.07 ± 0.38 µM | 0.41 | 0.25 | – | 28.4 ± 0.36 µM | 24.6 ± 2.37 µM | – | 0.85 | 0.63 | 0.28 | 13.46 ± 0.11 µM | 10.44 ± 0.1 µM | 10.77 ± 0.07 µM | – | – | –
